Source: patent US10093695B2, “Sterol derivative, preparation method therefor and use thereof” (Beijing Peking University WBL Biotech Co., Ltd., priority 2012, dated 2018)

Assays:
[1] = system: mouse hepatoma cell line H22; experiment: In-vitro anti-hepatoma activity, MTT cell growth inhibition, H22; assay type: cell-based; settings: mouse hepatoma cell line H22, 72 hours, read-out: half maximal inhibitory concentration (IC50) value
Procedure: (§1) Inoculatecancer cells in the logarithmic phase in each well of a 96-well culture plate (2×10^4 cells/well); add the drugs until the final concentrations of the drugs are 500, 250, 125, 62.5, 31.25, 15.625 and 7.8125 μg/mL, after culturing the cancer cells for 72 hours in a cell incubator with a CO2 concentration of 5%, add 10 μL of MTT to each well, incubate the cancer cells at 37° C. in darkness for 4 hours, remove the culture solution, add 150 μL of Dimethyl Sulfoxide (DMSO) or acidified isopropyl alcohol, after oscillating for 5 minutes, measure the Optical Density (OD) value at a wavelength of 570 nm; repeat the steps above for three times; set a blank control group; the cell lines use the same culture medium, which is a RPMI1640 culture medium containing 10% of FBS and 1% of double-antibody (penicillin and streptomycin).
(§2) 3. Calculation Formula of Cell Viability Cell viability=(experimental group OD value/control group OD value)×100%.
FIG. 9 is a curve of inhibitory effect of a compound with Structural Formula (II) prepared in the first embodiment on cell growth of mouse hepatoma cell line H22. […]

[2] = system: human tissue lymphoma cells U937; experiment: In-vitro anti-lymphoma activity, MTT cell growth inhibition, U937; assay type: cell-based; settings: U-937, human tissue lymphoma cells U937, 72 hours
Procedure: as §1, §2

[3] = system: human mononuclear lymphoma cells THP1; experiment: In-vitro anti-lymphoma activity, MTT cell growth inhibition, THP1; assay type: cell-based; settings: THP-1, human mononuclear lymphoma cells THP1, 72 hours
Procedure: as §1, §2
FIG. 13 is a curve of inhibitory effect of a compound with Structural Formula (II) prepared in the first embodiment on cell growth of human mononuclear lymphoma cells THP1. […]

[4] = system: mouse hepatoma cell line HepG2; experiment: In-vitro anti-hepatoma activity, MTT cell growth inhibition, HepG2; assay type: cell-based; settings: mouse hepatoma cell line HepG2, 72 hours
Procedure: as §1, §2
FIG. 10 is curve of inhibitory effect of a compound with Structural Formula (II) prepared in the first embodiment on cell growth of […] hepatoma cell line HepG2. […]

[5] = system: mouse lymphoma cells YAC-1; experiment: In-vitro anti-lymphoma activity, MTT cell growth inhibition, YAC-1; assay type: cell-based; settings: mouse lymphoma cells YAC-1, 72 hours
Procedure: as §1, §2
FIG. 12 is a curve of inhibitory effect of a compound with Structural Formula (II) prepared in the first embodiment on cell growth of mouse lymphoma cells YAC-1.

[6] = system: mouse sarcoma cell line S180; experiment: In-vitro anti-cancer activity, MTT cell growth inhibition, S180; assay type: cell-based; settings: S-180, mouse sarcoma cell line S180, 72 hours
Procedure: as §1, §2
FIG. 11 is a curve of inhibitory effect of a compound with Structural Formula (II) prepared in the first embodiment on cell growth of mouse sarcoma cell line S180.

HMG-CoA reductase = biological target: T1, HMG-CoA reductase (Rattus norvegicus, UniProt P51639); experiment: HMG-CoA reductase inhibitory activity experiment (OD340 decrease, rat liver microsomes); assay type: biochemical; settings: for Slope: decreasing speed of OD340 within 5 minutes, 37° C., blank control slope 15.6
T1 construct: take out a male rat liver, after washing the male rat liver with a KESD buffer solution; from tissue; host or cells: male rat liver microsomes
T1 sequence (P51639 1-887): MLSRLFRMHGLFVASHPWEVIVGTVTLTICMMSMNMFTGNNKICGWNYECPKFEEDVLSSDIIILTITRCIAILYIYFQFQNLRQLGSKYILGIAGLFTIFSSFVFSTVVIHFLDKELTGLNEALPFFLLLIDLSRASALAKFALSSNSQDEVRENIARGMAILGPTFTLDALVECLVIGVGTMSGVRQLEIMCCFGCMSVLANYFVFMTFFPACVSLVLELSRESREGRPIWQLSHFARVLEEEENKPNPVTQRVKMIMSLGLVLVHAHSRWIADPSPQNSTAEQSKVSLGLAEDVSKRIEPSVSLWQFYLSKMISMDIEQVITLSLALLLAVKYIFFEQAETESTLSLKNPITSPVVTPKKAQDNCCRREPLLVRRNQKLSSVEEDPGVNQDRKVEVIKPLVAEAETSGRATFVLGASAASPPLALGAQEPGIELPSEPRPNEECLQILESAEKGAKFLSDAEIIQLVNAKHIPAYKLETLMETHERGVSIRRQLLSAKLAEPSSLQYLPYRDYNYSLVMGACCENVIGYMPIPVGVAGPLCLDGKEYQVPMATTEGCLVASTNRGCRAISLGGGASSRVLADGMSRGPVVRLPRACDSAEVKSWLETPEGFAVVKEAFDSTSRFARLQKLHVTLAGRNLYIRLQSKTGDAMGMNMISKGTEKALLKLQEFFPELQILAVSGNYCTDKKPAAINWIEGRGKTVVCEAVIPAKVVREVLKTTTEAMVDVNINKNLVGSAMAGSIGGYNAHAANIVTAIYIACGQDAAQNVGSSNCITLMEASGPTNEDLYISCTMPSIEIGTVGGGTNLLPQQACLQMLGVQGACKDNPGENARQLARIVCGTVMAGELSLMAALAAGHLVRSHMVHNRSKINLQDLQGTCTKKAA
Procedure: Rat liver microsomes (HMG-CoA reductase) that may be commercially available or prepared with reference to the following method: take out a male rat liver, after washing the male rat liver with a KESD buffer solution, perform 1200 g centrifugation for 15 minutes, take the supernatant, after performing 105000 g centrifugation again for 90 minutes twice, collect centrifugation sediments, add 8.3% glycerol to the centrifugation sediments, heating for 1 hour with a 37° C. warm bath, purify coarse rat liver microsomes with saturated ammonium sulfate, and collect 35-50% of the purified part. The obtained purified part may be stored in a refrigerator at −80° C.
Dissolve 5.0 mg of the compound with Structural Formula (II) prepared in the first embodiment, Compound 4 or Compound 5, and 2.0 mg of lovastatin with 1 mL of a 75% ethanol solution, respectively;
the total volume of measurement system is 250 μL and the concentrations of the constituents are: potassium chloride 200 mM, potassium dihydrogen phosphate 160 mM, ethylenediaminetetraacetic acid 4 mM and dithiothreitol 10 mM; the concentrations of two substrates NADPH and HMG-CoA are respectively 200 μM and 50 μM, pH6.8, enzyme 30 μL.
Add an ethanol solution with 5 μL of the compound prepared by the first embodiment or an ethanol solution of Compound 4 or an ethanol solution of Compound 5 to a test group, add 5 μL of a lovastatin ethanol solution to a positive control group; add 5 μL of 75% ethanol to a blank control group; detect dynamic change of OD340 on a Versamax microplate reader at 37° C., and evaluate the HMG-CoA reductase activity level by detecting the decreasing speed (represented by a slope value) of OD340 within 5 minutes to further evaluate the enzyme inhibitory activity level, the result is as shown in Table 1.

[7] = final concentration in the system 100 μg/mL
[8] = final concentration in the system 40 μg/mL

Structure (SMILES): C[C@@H](C(O)C1OC2C[C@@H]3[C@](C)(CC[C@H]4[C@@]35C=CC3(CC(O)CC[C@]43C)OO5)[C@H]2[C@@]1(C)O)C(C)(C)O (stereo partly shown) [Compound with Structural Formula (II), 5,8-epidioxy-16,22-epoxy-ergosta-6-en-3,20,23,25-tetrol]
- IC50 [1]: ~200 µg/mL
- IC50 [2]: ~320 µg/mL
- IC50 [3]: ~400 µg/mL
- IC50 [4]: ~400 µg/mL
- IC50 [5]: ~350 µg/mL
- IC50 [6]: ~460 µg/mL
- Slope (HMG-CoA reductase; [7]): 10.7
- Inhibitory rate (%) (HMG-CoA reductase; [7]): 31.4%

Structure (SMILES): CC[C@H](C)C(=O)O[C@H]1C[C@@H](C)C=C2C=C[C@H](C)[C@H](CC[C@@H]3C[C@@H](O)CC(=O)O3)[C@H]21 [Lovastatin, lovastatin, reference compound]
- Slope (HMG-CoA reductase; [8]): 9.0
- Inhibitory rate (%) (HMG-CoA reductase; [8]): 42.3%
